For assay [1], the target named is T1, human L-type amino acid transporter 1 (LAT1; S2-hLAT1 cells) (Homo sapiens, UniProt Q01650).
T1 construct: expressed in transfected cells; host or cells: S2 cells (S2-hLAT1 / S2-LAT1); mammalian cell line described in Morimoto et al., J Pharmacol Sci 2008, 108, 505-516
Nature of the assay: Inhibition of L-[14C]leucine uptake in S2-LAT1 cells. The format is cell-based. The note with it: inhibition of 1.0 μM L-[14C]leucine uptake, 1.0 min, 37° C., NI = no inhibition at 100 μM. How it is done:
(§1) The establishment and characterization of mammalian cell lines expressing human L-type amino acid transporterss (i.e. S2-hLAT1 and S2-hLAT2) has been previously described (Morimoto et al., Journal of Pharmacological Sciences, 2008, 108, 505-516).
(§2) General test procedures are as follows: All test compounds were dissolved in dimethyl sulfoxide (DMSO) to prepare stock solutions at the concentrations of 0.05, 0.5, 5.0 and 50 mM; next, these stock solutions were used and diluted with uptake solution to make final test concentrations of 0.10, 1.00, 10.0 and 100 μM, respectively. Therefore, all compounds used for uptake experiment were in uptake solution containing 0.2% DMSO; experiments are performed in triplicate for each concentration. For control uptake, only DMSO was added into the uptake solution to a final concentration of 0.2%.
(§3) S2-LAT1 and S2-LAT2 cells were seeded (1.3×10^5 cells/well) into 24-well plates and cultured at 33° C. (5% CO2) for 2-3 days until confluent (90%-100% confluence). Uptake experiments were performed at 37° C. The culture medium was removed and washed 3 times with uptake solution (37° C.; Hank's Na^+ free buffer consisting of 125 mM choline chloride, 4.8 mM KCl, 1.3 mM CaCl2, 1.2 mM MgCl2, 25.0 mM HEPES, and 5.0 mM Tris, pH 7.4, supplemented with D-glucose (5.6 mM). The cells were equilibrated in uptake solution (300 μL; 37° C.) for 12 min. The equilibrated solution was removed and uptake solution containing radio-labeled compound (1.0 μM L-[^14C] Leucine) with or without test compound (300 μL) was added to the cells (1.0 min). The test solution was removed and the cells washed 3 times with ice-cold uptake solution. The cells are then solubilized with 0.1N NaOH (0.5 mL) and transferred to scintillation vials. Liquid scintillation fluid (3.0 mL; aquasol-2) was added, mixed and substrate accumulation was measured by counting radioactivity via liquid scintillation counting (LSC; LSC6100, Aloka, Tokyo). The uptake value and % of inhibition were calculated to afford IC50 values.

Assay [2] addresses T2, human L-type amino acid transporter 2 (LAT2; S2-hLAT2 cells) (Homo sapiens, UniProt Q9UHI5).
T2 construct: expressed in transfected cells; host or cells: S2 cells (S2-hLAT2 / S2-LAT2); mammalian cell line described in Morimoto et al., J Pharmacol Sci 2008, 108, 505-516
T2 sequence (Q9UHI5 1-535): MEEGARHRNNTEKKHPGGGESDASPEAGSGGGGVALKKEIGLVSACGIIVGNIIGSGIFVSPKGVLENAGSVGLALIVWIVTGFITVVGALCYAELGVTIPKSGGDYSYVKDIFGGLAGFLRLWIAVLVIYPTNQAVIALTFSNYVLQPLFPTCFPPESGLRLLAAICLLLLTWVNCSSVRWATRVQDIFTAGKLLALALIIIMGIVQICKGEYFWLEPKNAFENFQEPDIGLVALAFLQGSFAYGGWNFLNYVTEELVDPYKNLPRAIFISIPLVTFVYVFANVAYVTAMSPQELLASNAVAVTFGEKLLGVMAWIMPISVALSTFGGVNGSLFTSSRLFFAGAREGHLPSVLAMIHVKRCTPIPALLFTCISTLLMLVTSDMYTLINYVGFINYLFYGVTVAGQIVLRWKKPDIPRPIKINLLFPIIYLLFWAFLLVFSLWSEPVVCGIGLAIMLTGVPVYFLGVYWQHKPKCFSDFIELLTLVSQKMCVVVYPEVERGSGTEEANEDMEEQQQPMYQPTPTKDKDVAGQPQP
T2 sequence (P08195 1-529 partner): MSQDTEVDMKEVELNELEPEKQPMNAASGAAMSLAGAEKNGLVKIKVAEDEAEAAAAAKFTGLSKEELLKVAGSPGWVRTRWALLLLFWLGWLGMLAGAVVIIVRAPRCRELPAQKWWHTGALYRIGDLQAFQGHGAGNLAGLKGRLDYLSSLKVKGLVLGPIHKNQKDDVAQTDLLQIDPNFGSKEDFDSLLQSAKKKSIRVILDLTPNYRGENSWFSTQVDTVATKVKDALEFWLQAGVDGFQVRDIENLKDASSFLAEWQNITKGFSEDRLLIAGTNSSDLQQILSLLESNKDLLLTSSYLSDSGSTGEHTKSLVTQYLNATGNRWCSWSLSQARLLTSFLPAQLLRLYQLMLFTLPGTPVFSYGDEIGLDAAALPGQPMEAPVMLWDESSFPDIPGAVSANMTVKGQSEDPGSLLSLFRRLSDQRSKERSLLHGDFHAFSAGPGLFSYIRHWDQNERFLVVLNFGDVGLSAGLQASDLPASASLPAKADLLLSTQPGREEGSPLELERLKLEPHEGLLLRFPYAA
Briefly: Inhibition of L-[14C]leucine uptake in S2-LAT2 cells. The assay is classed as cell-based. The note with it: inhibition of 1.0 μM L-[14C]leucine uptake, 1.0 min, 37° C., NI = no inhibition at 100 μM. The method, then: as §1, §2, §3

T1 sequence (Q01650 whole entry, one chain of several): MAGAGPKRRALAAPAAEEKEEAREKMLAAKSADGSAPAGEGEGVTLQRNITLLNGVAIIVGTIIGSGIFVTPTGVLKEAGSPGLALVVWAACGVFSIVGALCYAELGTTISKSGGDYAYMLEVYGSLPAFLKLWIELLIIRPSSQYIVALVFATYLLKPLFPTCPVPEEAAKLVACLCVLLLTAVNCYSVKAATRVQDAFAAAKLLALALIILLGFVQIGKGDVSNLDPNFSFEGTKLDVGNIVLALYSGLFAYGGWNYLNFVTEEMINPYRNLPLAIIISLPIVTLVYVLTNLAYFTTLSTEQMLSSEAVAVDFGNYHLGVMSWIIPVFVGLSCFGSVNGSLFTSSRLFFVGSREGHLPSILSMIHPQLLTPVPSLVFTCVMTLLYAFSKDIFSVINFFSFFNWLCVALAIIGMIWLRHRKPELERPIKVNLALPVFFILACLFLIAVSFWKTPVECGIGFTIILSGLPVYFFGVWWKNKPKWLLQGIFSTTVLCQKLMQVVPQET

What is called IC50 is the concentration at which inhibition is half-maximal. As for `CCOc1ccc(COc2c(Cl)cc(C[C@H](N)C(=O)O)cc2Cl)c(OCC)c1` [compound 140], the IC50 in assay [1] was 2.2 µM; in assay [2], above 100 µM.

With `COc1cccc(COc2c(Cl)cc(C[C@H](N)C(=O)O)cc2Cl)c1OC` [compound 132], the IC50 in assay [1] is 28.2 µM; in assay [2], above 100 µM.

As to `CCOc1ccc(COc2c(I)cc(C[C@H](N)C(=O)O)cc2I)cc1OCC` [compound 49], the values for the IC50 in assay [1] and in assay [2] were 5.5 µM and above 100 µM, respectively.

With `COc1ccc(COc2c(Cl)cc(C[C@H](N)C(=O)O)cc2Cl)c(C)c1C` [compound 137], the IC50 is 3.5 µM in assay [1] and above 100 µM in assay [2].

As for `CCOc1ccc(COc2c(Cl)cc(C[C@H](N)C(=O)O)cc2Cl)cc1OCC` [compound 141], the results for the IC50 in assay [1] and in assay [2] were 2.9 µM and 44.9 µM, respectively.

On to `COc1ccc(COc2c(Cl)cc(CC(C)(N)C(=O)O)cc2Cl)cc1` (racemic) [compound 146], for which the IC50 in assay [1] amounted to 6.7 µM; in assay [2] it was 16.4 µM.

As to `COc1cccc(CCOc2c(Br)cc(C[C@H](N)C(=O)O)cc2Br)c1` [compound 53], the IC50 in assay [1] was 6.3 µM; in assay [2], above 100 µM.

With `COc1ccc(COc2c(I)cc(C[C@H](N)C(=O)O)cc2I)c(OC)c1OC` [compound 43], the IC50 in assay [1] is 23.6 µM; in assay [2] it was above 100 µM.

As for `COc1ccc(COc2c(Cl)cc(C[C@H](N)C(=O)O)cc2Cl)c(OC)n1` [compound 135], the IC50 in assay [1] is 2.4 µM; in assay [2], 32.5 µM.

As for `N[C@@H](Cc1cc(Br)c(OCCc2cccc(C(F)(F)F)c2)c(Br)c1)C(=O)O` [compound 59], the IC50 in assay [1] is 31.8 µM; in assay [2], above 100 µM.

Turning to `N[C@@H](Cc1cc(Br)c(OCCc2ccccc2C(F)(F)F)c(Br)c1)C(=O)O` [compound 60], the IC50 in assay [1] and in assay [2] was above 100 µM throughout.

For `N[C@@H](Cc1cc(I)c(OCCc2ccc([N+](=O)[O-])cc2)c(I)c1)C(=O)O` [compound 36], the IC50 is 28.2 µM in assay [1] and above 100 µM in assay [2].

In the case of `CCOc1cc(COc2c(Cl)cc(C[C@H](N)C(=O)O)cc2Cl)cc(OCC)c1OCC` [compound 139], the values for the IC50 in assay [1] and in assay [2] were 1.2 µM and above 100 µM, respectively.

In turn, `CC(N)(Cc1cc(Cl)c(OCc2ccc(C(F)(F)F)cc2)c(Cl)c1)C(=O)O` (racemic) [compound 145] gave an IC50 in assay [2] above 100 µM.

With `N[C@@H](Cc1cc(I)c(OCc2ccc(Cl)cc2)c(I)c1)C(=O)O` [compound 51], the values for the IC50 in assay [1] and in assay [2] were 10.4 µM and 29.5 µM, respectively.

In the case of `COc1ccc(COc2c(Cl)cc(CC(C)(N)C(=O)O)cc2Cl)cc1OC` (racemic) [compound 150], the IC50 in assay [1] and in assay [2] was above 100 µM each time.

`N[C@@H](Cc1cc(Cl)c(OCc2ccc3c(c2)OCO3)c(Cl)c1)C(=O)O` [compound 130]: the IC50 in assay [1] came to 4.2 µM; in assay [2], 27.3 µM.

Turning to `COc1cccc(COc2c(Cl)cc(CC(C)(N)C(=O)O)cc2Cl)c1OC` (racemic) [compound 149], the IC50 in assay [1] and in assay [2] was above 100 µM in each case.

For `COc1ccccc1COc1c(Br)cc(C[C@H](N)C(=O)O)cc1Br` [compound 55], the IC50 in assay [1] was 10.2 µM; in assay [2], above 100 µM.

`COc1ccc(COc2c(Cl)cc(C[C@H](N)C(=O)O)cc2Cl)cc1OC` [compound 129]: the IC50 in assay [1] is 17.8 µM; in assay [2], above 100 µM.

As to `COC(COc1c(I)cc(C[C@H](N)C(=O)O)cc1I)c1ccccc1` (some centres unmarked) [compound 35], the IC50 in assay [1] was 8.8 µM; in assay [2], above 100 µM.

With `N[C@@H](Cc1cc(I)c(OCc2ccc([N+](=O)[O-])cc2)c(I)c1)C(=O)O` [compound 37], the concentration for half-maximal inhibition (IC50) was determined as 11.5 µM in assay [1] and 8.2 µM in assay [2].

In the case of `CC(N)(Cc1cc(Cl)c(OCc2ccncc2)c(Cl)c1)C(=O)O` (racemic) [compound 152], the IC50 in assay [1] and in assay [2] was above 100 µM each time.

Consider `N[C@@H](Cc1cc(I)c(OCC(=O)c2ccccc2)c(I)c1)C(=O)O` [compound 34], for which the figures for the IC50 in assay [1] and in assay [2] were 11.9 µM and 47.9 µM, respectively.

For `N[C@@H](Cc1cc(Br)c(OCc2ccccc2C(F)(F)F)c(Br)c1)C(=O)O` [compound 61], the IC50 in assay [1] and in assay [2] was above 100 µM each time.

Turning to `N[C@@H](Cc1cc(I)c(OCc2ccc3c(c2)OCO3)c(I)c1)C(=O)O` [compound 50], the IC50 in assay [1] was 24.1 µM; in assay [2] it was above 100 µM.

For `COc1ccc(COc2c(Cl)cc(C[C@H](N)C(=O)O)cc2Cl)c(OC)c1OC` [compound 136], the IC50 in assay [1] is 8.1 µM; in assay [2], above 100 µM.

`COc1cc(COc2c(Cl)cc(CC(C)(N)C(=O)O)cc2Cl)cc(OC)c1OC` (racemic) [compound 151]: the IC50 in assay [1] and in assay [2] was above 100 µM throughout.

Take `COc1ccccc1COc1c(Cl)cc(CC(C)(N)C(=O)O)cc1Cl` (racemic) [compound 148]: the half-inhibitory concentration (IC50) in assay [1] and in assay [2] was above 100 µM throughout.

For the compound `COc1ccc(CCOc2c(Br)cc(C[C@H](N)C(=O)O)cc2Br)cc1` [compound 52], the IC50 in assay [1] was 6.8 µM; in assay [2], above 100 µM.

For `COc1ccc(COc2c(I)cc(C[C@H](N)C(=O)O)cc2I)c(OC)c1` [compound 41], the IC50 was 5 µM in assay [1] and above 100 µM in assay [2].

Consider `COc1cc(Cl)ccc1COc1c(I)cc(C[C@H](N)C(=O)O)cc1I` [compound 42], for which the IC50 in assay [1] is 17.7 µM; in assay [2], above 100 µM.

`N[C@@H](Cc1cc(Br)c(OCCc2ccc(C(F)(F)F)cc2)c(Br)c1)C(=O)O` [compound 58]: the IC50 was 43.2 µM in assay [1] and above 100 µM in assay [2].

Take `COc1cc(Cl)ccc1COc1c(Cl)cc(C[C@H](N)C(=O)O)cc1Cl` [compound 134]: the IC50 is 4.4 µM in assay [1] and above 100 µM in assay [2].

In the case of `N[C@@H](Cc1cc(Cl)c(OCCc2ccccc2)c(Cl)c1)C(=O)O` [compound 122], the IC50 is 50.7 µM in assay [1] and above 100 µM in assay [2].

For the compound `COc1ccccc1CCOc1c(Br)cc(C[C@H](N)C(=O)O)cc1Br` [compound 54], the IC50 in assay [1] was 5.4 µM; in assay [2], above 100 µM.

For `COc1cccc(COc2c(Cl)cc(CC(C)(N)C(=O)O)cc2Cl)c1` (racemic) [compound 147], the IC50 in assay [1] and in assay [2] was above 100 µM throughout.

Regarding `COc1ccc(COc2c(Br)cc(C[C@H](N)C(=O)O)cc2Br)cc1` [compound 57], the values for the half-inhibitory concentration (IC50) in assay [1] and in assay [2] were 16.4 µM and 86.5 µM, respectively.

As to `COc1cc(OC)c(OC)cc1COc1c(Cl)cc(C[C@H](N)C(=O)O)cc1Cl` [compound 138], the IC50 in assay [1] was 29.2 µM; in assay [2] it was above 100 µM.

The values are drawn from patent US20110150767A1, “ALPHA-SUBSTITUTED AND ALPHA-UNSUBSTITUTED AROMATIC AMINO ACID DERIVATIVES AND COMPOSITIONS THEREOF FOR USE TO TREAT, DIAGNOSE, OR MONITOR A MEDICAL CONDITION” (priority 2009, published 2011).
